One block for each molecule: values may come before it.
Tests used:
[1] = target: L-lactate dehydrogenase A chain (Homo sapiens, UniProt P00338); test: Inhibition of human LDH-A incubated for 10 mins in presence of […] by fluorescence based reader assay
[2] = target: L-lactate dehydrogenase B chain (Homo sapiens, UniProt P07195); test: Inhibition of human LDH-B incubated for 10 mins in presence of […] by fluorescence based reader assay
[3] = Drug metabolism in mouse assessed as Cmax of 4-((4-(1-methyl-1H-imidazole-2-carbonyl)phenyl)amino)-4-oxo-2-(4-(trifluoromethyl)phenyl)butanoic acid at 5 mg/kg, po; format: ADME, organism-based; details: in vivo
[4] = Drug metabolism in mouse assessed as metabolite 4-((4-(1-methyl-1H-imidazole-2-carbonyl)phenyl)amino)-4-oxo-2-(4-(trifluoromethyl)phenyl)butanoic acid cumulative half-life by LC-MS/MS analysis; format: ADME
[5] = Drug metabolism in mouse assessed as AUC(0 to infinity) of 4-((4-(1-methyl-1H-imidazole-2-carbonyl)phenyl)amino)-4-oxo-2-(4-(trifluoromethyl)phenyl)butanoic acid at 5 mg/kg, po; format: ADME, organism-based; details: in vivo
[6] = Half-life in CD1 mouse at 5 mg/kg, po; format: ADME, organism-based; details: in vivo
[7] = Drug metabolism in mouse assessed as tmax of 4-((4-(1-methyl-1H-imidazole-2-carbonyl)phenyl)amino)-4-oxo-2-(4-(trifluoromethyl)phenyl)butanoic acid at 5 mg/kg, po; format: ADME, organism-based; details: in vivo
[8] = Clearance in CD1 mouse at 1 mg/kg, iv; format: ADME, organism-based; details: CD1, mouse, in vivo
[9] = Cmax in CD1 mouse at 5 mg/kg, po; format: ADME, organism-based; details: in vivo
[10] = Drug metabolism in mouse assessed as tmax of 4-((4-(1-methyl-1H-imidazole-2-carbonyl)phenyl)amino)-4-oxo-2-(4-(trifluoromethyl)phenyl)butanoic acid at 1 mg/kg, iv; format: ADME, organism-based; details: in vivo
[11] = Drug metabolism in mouse assessed as half-life of 4-((4-(1-methyl-1H-imidazole-2-carbonyl)phenyl)amino)-4-oxo-2-(4-(trifluoromethyl)phenyl)butanoic acid at 5 mg/kg, po; format: ADME, organism-based; details: in vivo
[12] = Drug metabolism in mouse assessed as half-life of 4-((4-(1-methyl-1H-imidazole-2-carbonyl)phenyl)amino)-4-oxo-2-(4-(trifluoromethyl)phenyl)butanoic acid at 1 mg/kg, iv; format: ADME, organism-based; details: in vivo
[13] = Cmax in CD1 mouse at 1 mg/kg, iv; format: ADME, organism-based; details: in vivo
[14] = Cytotoxicity against HPNEs incubated for 48 hrs by Hoechst 33342 and SYTOX green staining based confocal imaging analysis; format: toxicity, cell-based; details: human, HPNE cells
MIA PaCa-2 = test: Antiproliferative activity against human MIA PaCa-2 cells incubated for 48 hrs by Hoechst 33342 and SYTOX green staining based confocal imaging analysis; format: functional, cell-based; details: MIA PaCa-2, 48 h
[15] = Tmax in CD1 mouse at 5 mg/kg, po; format: ADME, organism-based; details: in vivo
[16] = Half-life in CD1 mouse at 1 mg/kg, iv; format: ADME, organism-based; details: in vivo
[17] = Drug metabolism in mouse assessed as Cmax of 4-((4-(1-methyl-1H-imidazole-2-carbonyl)phenyl)amino)-4-oxo-2-(4-(trifluoromethyl)phenyl)butanoic acid at 1 mg/kg, iv; format: ADME, organism-based; details: in vivo
[18] = Oral bioavailability in CD1 mouse at 5 mg/kg; format: ADME, organism-based; details: in vivo
PANC-1 = test: Antiproliferative activity against human PANC-1 cells incubated for 48 hrs by Hoechst 33342 and SYTOX green staining based confocal imaging analysis; format: functional, cell-based; details: PANC-1, 48 h
[19] = Drug metabolism in mouse assessed as AUC(0 to infinity) of 4-((4-(1-methyl-1H-imidazole-2-carbonyl)phenyl)amino)-4-oxo-2-(4-(trifluoromethyl)phenyl)butanoic acid at 1 mg/kg, iv; format: ADME, organism-based; details: in vivo
[20] = AUC(0 to infinity) in CD1 mouse at 1 mg/kg, iv; format: ADME, organism-based; details: in vivo
[21] = Volume of distribution in CD1 mouse at 1 mg/kg, iv; format: ADME, organism-based; details: in vivo
[22] = Antiproliferative activity against mouse FC-1199 cells incubated for 48 hrs by Hoechst 33342 and SYTOX green staining based confocal imaging analysis; format: functional, cell-based; details: FC-1199, 48 h
[23] = AUC(0 to infinity) in CD1 mouse at 5 mg/kg, po; format: ADME, organism-based; details: in vivo

Chain of L-lactate dehydrogenase B chain (P07195 whole entry): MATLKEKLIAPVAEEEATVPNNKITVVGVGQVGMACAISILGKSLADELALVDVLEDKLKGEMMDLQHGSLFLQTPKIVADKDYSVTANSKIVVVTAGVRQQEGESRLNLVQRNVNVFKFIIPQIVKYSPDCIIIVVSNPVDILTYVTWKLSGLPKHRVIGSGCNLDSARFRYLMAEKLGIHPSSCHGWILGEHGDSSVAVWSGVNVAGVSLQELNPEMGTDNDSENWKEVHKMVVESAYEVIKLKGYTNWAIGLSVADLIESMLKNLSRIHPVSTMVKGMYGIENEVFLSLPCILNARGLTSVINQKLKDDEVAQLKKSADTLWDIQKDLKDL

IC50 [1]: 15.7 µM
Compound: COC(=O)C(CC(=O)Nc1ccc(C(=O)c2ccccc2)cc1)c1ccc(C(F)(F)F)cc1 (configuration not stated)

IC50 [2]: > 100 µM
IC50 [1]: > 100 µM
Compound: O=C(O)CC(NC(=O)c1ccccc1Cl)c1cccc(Cl)c1 (configuration not stated)

IC50 [1]: 0.19 µM
Compound: Cn1ccnc1C(=O)c1ccc(NC(=O)CC(C(=O)O)c2ccc(Cl)cc2)cc1 (configuration not stated)

IC50 [1]: 79.3 µM
Compound: O=C(CC(C(=O)O)c1ccc(C(F)(F)F)cc1)Nc1ccc(C(=O)c2ccccc2)cc1 (configuration not stated)

Cmax [3]: 9760 nM
t1/2 [4]: 4.5 h
AUC [5]: 25.96 µM·h
half-life [6]: 1.63 h
Tmax [7]: 0.5 h
clearance [8]: 110 mL/min/kg
Cmax [9]: 480 nM
Tmax [10]: 0.5 h
t1/2 [11]: 2.92 h
t1/2 [12]: 2.18 h
Cmax [13]: 1020 nM
Tmax [15]: 0.25 h
half-life [16]: 1.19 h
Cmax [17]: 1010 nM
F [18]: 73%
AUC [19]: 4.04 µM·h
AUC(0-inf) [20]: 0.328 µM·h
Vd [21]: 10 L/kg
AUC(0-inf) [23]: 0.551 µM·h
Compound: COC(=O)C(CC(=O)Nc1ccc(C(=O)c2nccn2C)cc1)c1ccc(C(F)(F)F)cc1 (configuration not stated)
IC50 at 48 h [14]: 49.5 µM
IC50 (MIA PaCa-2): 25.6 µM
IC50 (PANC-1): 23.9 µM
IC50 [22]: 12.1 µM

IC50 [1]: 71.5 µM
Compound: COC(=O)C(CC(=O)Nc1ccc(N2CCOCC2)c(F)c1)c1ccc(C(F)(F)F)cc1 (configuration not stated)

Compound: COC(=O)C(CC(=O)Nc1ccc(C(=O)c2nccn2C)cc1)c1ccc(Cl)cc1 (configuration not stated)
IC50 at 48 h [14]: 26.5 µM
IC50 (MIA PaCa-2): 24.2 µM
IC50 (PANC-1): > 50 µM
IC50 [22]: 23.4 µM

IC50 [1]: 2.49 µM
Compound: COC(=O)C(CC(=O)Nc1ccc(C(=O)c2nccn2C)cc1)c1ccccc1 (configuration not stated)

IC50 [2]: > 100 µM
IC50 [1]: > 100 µM
Compound: O=C(CC(C(=O)O)c1ccc(C(F)(F)F)cc1)Nc1ccc(N2CCOCC2)c(Cl)c1 (configuration not stated)

IC50 [1]: 66.4 µM
Compound: COC(=O)C(CC(=O)Nc1ccc(N2CCN(C)CC2)cc1)c1ccc(C(F)(F)F)cc1 (configuration not stated)

From ChEMBL document CHEMBL5584248, “Synthesis and biological characterization of an orally bioavailable lactate dehydrogenase-A inhibitor against pancreatic cancer” (Eur J Med Chem, 2024)
